SMILES strings stand for the structures. Where a name gives a salt, the structure may show the parent alone.

In experiment [1] the target is Human recombinant DAO (Homo sapiens (Human), UniProt P19801). In words: Determination of selective inhibition of DAO (diamine oxidase) (Amplex Red, 1,4-diaminobutane substrate). The format is biochemical. Conditions: 30 min pre-incubation at 37° C. The text has this:
2. Determination of Selective Inhibition of DAO (Diamine Oxidase)
Test purpose: The following method is used to determine the selective inhibitory activity of the compound of the present invention on DAO.
• Human recombinant DAO (Recombinant Human ABP-1/DAO) was purchased from R&D, Cat. No. 8298-AO; • Amplex® Red Hydrogen PeroxidePeroxidase Assay Kit was purchased from Invitrogen, Cat. No. A22188; • 1,4-Diaminobutane dihydrochloride was purchased from Aladdin, Cat. No. D106194-25G. Test Method:
The test compound was dissolved in DMSO and diluted 5 times to a total of 6 concentrations. In a 384-well plate, 24 μL of human recombinant DAO (1 μg/mL) was added into each well. 1 μL of test compounds at different concentrations were added to each well containing human recombinant DAO, and the plate was incubated at 37° C. for 30 min. After incubating for 30 min, 25 μL of Amplex® Red Hydrogen Peroxide Peroxidase Assay Kit (containing 100 μM Amplex® Red and 0.2 U/ml HRP) containing 1 M 1,4-butanediamine dihydrochloride was added into the corresponding wells, and the plate was incubated in the dark at 37° C. for 30 min. After 30 min, PHERAstar FSX microplate reader of BMG LABTECH was used to read the fluorescence value (RFU) under excitation at 540 nm and emission at 580 nm. The graph was drawn using Graph Pad Prism 5 software to calculate the IC50 value.

For experiment [2], the target named is human recombinant SSAO/VAP-1 (Homo sapiens (Human), UniProt Q16853). In words: Determination of inhibitory activity of human recombinant SSAO/VAP-1 (Amplex Red, benzylamine substrate). The format is biochemical. Conditions: 30 min pre-incubation at room temperature; read-out: SSAO/VAP-1 (Human Recombinant Protein) IC50. The text has this: 1. Determination of Inhibitory Activity of Human Recombinant SSAO/VAP-1
Chain of human recombinant SSAO/VAP-1 (Q16853 whole entry): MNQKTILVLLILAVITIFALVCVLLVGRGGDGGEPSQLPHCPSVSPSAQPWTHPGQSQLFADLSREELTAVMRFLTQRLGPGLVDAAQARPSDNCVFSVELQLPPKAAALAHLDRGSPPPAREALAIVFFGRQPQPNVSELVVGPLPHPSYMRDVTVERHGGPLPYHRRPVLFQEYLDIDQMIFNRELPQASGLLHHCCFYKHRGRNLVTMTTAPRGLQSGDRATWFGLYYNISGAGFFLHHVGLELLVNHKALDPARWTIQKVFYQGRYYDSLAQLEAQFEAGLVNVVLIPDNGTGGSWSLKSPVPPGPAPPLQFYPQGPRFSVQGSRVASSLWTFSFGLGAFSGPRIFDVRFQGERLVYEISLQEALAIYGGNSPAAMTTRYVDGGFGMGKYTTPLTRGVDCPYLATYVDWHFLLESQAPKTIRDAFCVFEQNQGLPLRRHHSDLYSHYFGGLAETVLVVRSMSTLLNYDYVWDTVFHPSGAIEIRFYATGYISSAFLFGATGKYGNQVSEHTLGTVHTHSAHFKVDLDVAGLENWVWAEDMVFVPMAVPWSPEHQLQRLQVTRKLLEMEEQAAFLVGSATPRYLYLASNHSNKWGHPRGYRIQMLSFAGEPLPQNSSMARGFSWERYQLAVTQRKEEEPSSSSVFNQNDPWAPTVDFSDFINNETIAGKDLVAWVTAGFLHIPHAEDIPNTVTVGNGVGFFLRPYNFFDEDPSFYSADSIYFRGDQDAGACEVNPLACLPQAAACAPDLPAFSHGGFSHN
Test purpose: The following method is used to determine the inhibitory activity of the compounds in the examples of the present invention on human recombinant SSAO/VAP-1.
• Human recombinant SSAO/VAP-1 (VAP-1, human) was purchased from Sigma, Cat. No. SRP6241; • Amplex® Red Monoamine Oxidase Assay Kit was purchased from Invitrogen, Cat. No. A12214; • 384-well plate was purchased from Corning, Cat. No. 6005174; • Amplex® Red Hydrogen PeroxidePeroxidase Assay Kit was purchased from Invitrogen, Cat. No. A22188.
Benzylamine hydrochloride was purchased from Sigma, Cat. No. B5136-25G; • DMSO (Dimethyl Sulfoxide) was purchased from Sigma, Cat. No. D2650-100ML; Test Method:
The test compound was dissolved in DMSO and diluted 4 times to a total of 10 concentrations. In a 384-well plate, 25 μL of human recombinant SSAO/VAP-1 (1.6 μg/mL) was added into each well. 100 nL of test compounds at different concentrations were added to each well containing human recombinant SSAO/VAP-1, and the plate was incubated at room temperature for 30 min. After incubating for 30 min, 25 μL of Amplex® Red Monoamine Oxidase Assay Kit (a reaction mixture containing 200 μM Amplex Red reagent, 1 U/mL HRP and 1 mM benzylamine hydrochloride) was added into the corresponding wells, and the plate was incubated at room temperature in the dark for 60 min. After 60 min, PerkinElmer's Envision was used to read the fluorescence value (RFU) under excitation at 530-560 nm and emission at 590 nm. The graph was drawn using Graph Pad Prism 5 software to calculate the IC50 value.

Chain of Human recombinant DAO (P19801 20-751): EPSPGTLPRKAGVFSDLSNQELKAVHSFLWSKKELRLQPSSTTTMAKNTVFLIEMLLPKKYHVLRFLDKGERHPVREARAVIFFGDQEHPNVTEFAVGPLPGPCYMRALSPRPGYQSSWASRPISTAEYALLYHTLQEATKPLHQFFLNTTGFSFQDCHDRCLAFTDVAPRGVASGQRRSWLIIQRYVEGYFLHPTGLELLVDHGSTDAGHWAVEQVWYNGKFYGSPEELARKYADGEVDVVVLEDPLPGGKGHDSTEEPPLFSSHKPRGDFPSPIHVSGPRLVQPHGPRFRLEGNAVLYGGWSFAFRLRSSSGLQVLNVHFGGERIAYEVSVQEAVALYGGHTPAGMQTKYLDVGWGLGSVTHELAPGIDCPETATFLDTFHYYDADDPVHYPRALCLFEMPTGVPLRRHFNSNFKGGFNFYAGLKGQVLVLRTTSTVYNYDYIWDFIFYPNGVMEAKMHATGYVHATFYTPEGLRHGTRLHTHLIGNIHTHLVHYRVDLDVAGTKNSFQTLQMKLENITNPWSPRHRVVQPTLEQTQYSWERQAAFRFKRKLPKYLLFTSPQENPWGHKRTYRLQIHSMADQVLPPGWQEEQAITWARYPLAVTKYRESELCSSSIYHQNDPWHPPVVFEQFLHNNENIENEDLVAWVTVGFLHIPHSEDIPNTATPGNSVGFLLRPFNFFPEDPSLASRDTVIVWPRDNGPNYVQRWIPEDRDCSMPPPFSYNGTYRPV

`CNC(=O)CN1CCc2cc(OC/C(=C/F)CN)ccc2C1=O` [Example 3, 2-[6-[(E)-2-(aminomethyl)-3-fluoro-allyloxy]-1-oxo-3,4-dihydroisoquinolin-2-yl]-N-methyl-acetamide hydrochloride]: the IC50 in experiment [1] is greater than 100 nM.

Take `CNC(=O)CN1CCc2cc(OC/C(=C\F)CN)ccc2C1=O` [Example 4, 2-[6-[(Z)-2-(aminomethyl)-3-fluoro-allyloxy]-1-oxo-3,4-dihydroisoquinolin-2-yl]-N-methyl-acetamide hydrochloride]: the IC50 in experiment [2] turned out to be 3.7 nM.

Take `CCNC(=O)CN1CCc2cc(OC/C(=C/F)CN)ccc2C1=O` [Example 5, 2-[6-[(E)-2-(aminomethyl)-3-fluoro-allyloxy]-1-oxo-3,4-dihydroisoquinolin-2-yl]-N-ethyl-acetamide hydrochloride]: in experiment [1], the IC50 is greater than 100 nM.

`CCNC(=O)CN1CCc2cc(OC/C(=C\F)CN)ccc2C1=O` [Example 6, 2-[6-[(Z)-2-(aminomethyl)-3-fluoro-allyloxy]-1-oxo-3,4-dihydroisoquinolin-2-yl]-N-ethyl-acetamide hydrochloride]: the IC50 in experiment [2] was found to be 4.12 nM.

On to `CN(C)C(=O)CN1CCc2cc(OC/C(=C/F)CN)ccc2C1=O` [Example 7, 2-[6-[(E)-2-(aminomethyl)-3-fluoro-allyloxy]-1-oxo-3,4-dihydroisoquinolin-2-yl]-N, N-dimethyl-acetamide hydrochloride], for which the IC50 was greater than 1000 nM in experiment [1] and 11.1 nM in experiment [2].

Consider `CN(C)C(=O)CN1CCc2cc(OC/C(=C\F)CN)ccc2C1=O` [Example 8, 2-[6-[(Z)-2-(aminomethyl)-3-fluoro-allyloxy]-1-oxo-3,4-dihydroisoquinolin-2-yl]-N,N-dimethyl-acetamide hydrochloride], for which the IC50 in experiment [2] turned out to be 1 nM.

For `CC(C)NC(=O)CN1CCc2cc(OC/C(=C/F)CN)ccc2C1=O` [Example 9, 2-[6-[(E)-2-(aminomethyl)-3-fluoro-allyloxy]-1-oxo-3,4-dihydroisoquinolin-2-yl]-N-isopropyl-acetamide hydrochloride], the IC50 in experiment [1] was greater than 1000 nM.

For `CC(C)CNC(=O)CN1CCc2cc(OC/C(=C/F)CN)ccc2C1=O` [Example 11, 2-[6-[(E)-2-(aminomethyl)-3-fluoro-allyloxy]-1-oxo-3,4-dihydroisoquinolin-2-yl]-N-isobutyl-acetamide hydrochloride], in experiment [1], the IC50 was greater than 100 nM.

`NC/C(=C\F)COc1ccc2c(c1)CCN(CC(=O)NCC(F)(F)F)C2=O` [Example 13, 2-[6-[(E)-2-(aminomethyl)-3-fluoro-allyloxy]-1-oxo-3,4-dihydroisoquinolin-2-yl]-N-(2,2,2-trifluoroethyl)acetamide hydrochloride]: the IC50 in experiment [1] is greater than 100 nM.

With `CC(C)(C)NC(=O)CN1CCc2cc(OC/C(=C/F)CN)ccc2C1=O` [Example 15, 2-[6-[(E)-2-(aminomethyl)-3-fluoro-allyloxy]-1-oxo-3,4-dihydroisoquinolin-2-yl]-N-tert-butyl-acetamide hydrochloride], in experiment [1], the IC50 was greater than 100 nM.

Consider `NC/C(=C\F)COc1ccc2c(c1)CCN(CC(=O)NC1CC1)C2=O` [Example 16, 2-[6-[(E)-2-(aminomethyl)-3-fluoro-allyloxy]-1-oxo-3,4-dihydroisoquinolin-2-yl]-N-cyclopropyl-acetamide hydrochloride], for which the IC50 in experiment [1] was greater than 100 nM.

As to `NC/C(=C\F)COc1ccc2c(c1)CCN(CC(=O)NC1CCC1)C2=O` [Example 17, 2-[6-[(E)-2-(aminomethyl)-3-fluoro-allyloxy]-1-oxo-3,4-dihydroisoquinolin-2-yl]-N-cyclobutyl-acetamide hydrochloride], the IC50 in experiment [1] was greater than 100 nM.

`CS(=O)(=O)CCNC(=O)CN1CCc2cc(OC/C(=C/F)CN)ccc2C1=O` [Example 18, 2-[6-[(E)-2-(aminomethyl)-3-fluoro-allyloxy]-1-oxo-3,4-dihydroisoquinolin-2-yl]-N-(2-methanesulfonylethyl)acetamide hydrochloride]: the IC50 in experiment [1] is greater than 1000 nM; in experiment [2] it was 8.66 nM.

With `NC/C(=C\F)COc1ccc2c(c1)CCN(CC(=O)NC1CC(F)(F)C1)C2=O` [Example 19, 2-[6-[(E)-2-(aminomethyl)-3-fluoro-allyloxy]-1-oxo-3,4-dihydroisoquinolin-2-yl]-N-(3,3-difluorocyclobutyl)-acetamide hydrochloride], the values for the IC50 in experiment [1] and in experiment [2] were greater than 1000 nM and 4.01 nM, respectively.

Regarding `NC/C(=C\F)COc1ccc2c(c1)CCN(CC(=O)N1CCCC1)C2=O` [Example 20, 6-[(E)-2-(aminomethyl)-3-fluoro-allyloxy]-2-(2-oxo-2-pyrrolidin-1-yl-ethyl)-3,4-dihydroisoquinoline-1-one hydrochloride], in experiment [1], the IC50 was greater than 100 nM.

`CCCNC(=O)CN1CCc2cc(OC/C(=C/F)CN)ccc2C1=O` [Example 21, 2-[6-[(E)-2-(aminomethyl)-3-fluoro-allyloxy]-1-oxo-3,4-dihydroisoquinolin-2-yl]-N-propyl-acetamide hydrochloride]: the IC50 in experiment [1] was greater than 1000 nM; in experiment [2], 11.8 nM.

With `COCCNC(=O)CN1CCc2cc(OC/C(=C/F)CN)ccc2C1=O` [Example 22, 2-[6-[(E)-2-(aminomethyl)-3-fluoro-allyloxy]-1-oxo-3,4-dihydroisoquinolin-2-yl]-N-(2-methoxyethyl)acetamide hydrochloride], in experiment [1], the IC50 was greater than 100 nM.

In the case of `CCOP(=O)(CCN1CCc2cc(OC/C(=C/F)CN)ccc2C1=O)OCC` [Example 24, 6-[(E)-2-(aminomethyl)-3-fluoro-allyloxy]-2-(2-diethoxyphosphorylethyl)-3,4-dihydroisoquinoline-1-one hydrochloride], the IC50 in experiment [1] was greater than 100 nM; in experiment [2], 3.67 nM.

As to `CS(=O)(=O)CCN1CCc2cc(OC/C(=C/F)CN)ccc2C1=O` [Example 25, 6-[(E)-2-(aminomethyl)-3-fluoro-allyloxy]-2-(2-methylsulfonylethyl)-3,4-dihydroisoquinoline-1-one hydrochloride], the IC50 in experiment [1] was greater than 100 nM; in experiment [2], 3.38 nM.
